The source of these data is article PMC7249060, “The Antiproliferative Effects of Flavonoid MAO Inhibitors on Prostate Cancer Cells” (Molecules, 2020).

Where only a bound is given, the exact number is not on record here.

As a reminder, the IC50 is the midpoint of a concentration-inhibition curve.

Series [1] relates to LNCaP cells. Nature of the series: Antiproliferation screen assay, resazurin, 72 h. It is filed as cell-based, human. The note with it: 50 μM. Here is the method: In this screen, we examined the growth inhibitory effects of all synthesized KKRs on the three human PCa cell lines LNCaP, DU145, and PC3. The antiproliferative clinical drug TAX of 0.25 μM was used as a positive control. Additionally, different standards of MAO-Is and FLUT were tested for their effect on the LNCaP cells. Briefly, the procedures and materials used were the same as for the viability assay except for the following—cultured cells were seeded at 10,000 cells/175-µL/well related experimental media, and the resazurin solution was added after 72 h of incubation with the compounds of 50 μM each.
Background: Alamar Blue is a resazurin reagent that responds to reducing activity.

The test system of series [2] is LNCaP cells. Nature of the series: Antiproliferation screen assay, resazurin, 72 h. It counts as cell-based, human.
The test system of series [3] is LNCaP cells. Nature of the series: Viability screen assay, resazurin, 24 h. The note with it: 50 μM, 90% viability as margin of cytotoxicity. It is filed as cell-based, human. Here is the method: We examined the cytotoxic effects of all 20 synthesized KKRs on the three human PCa cell lines LNCaP, DU145, and PC3, after a 24 h exposure period. Non-toxic TAX was used for comparison. Briefly, cultured cells were seeded in black transparent bottom 96-well microplates at 50,000 cells/175-µL/well in experimental media (RPMI1640 for LNCaP, EMEM for DU145, and DMEM/F12K for PC3), supplied with 5% FBS and 1% P/S. Wells of media without cells were considered blanks and negative controls. The plates were incubated overnight at 37 °C in 5% CO2 to allow cell attachment. For each compound, a working solution of 8X KKR in sterile […] HEPES in HBSS pH buffer of 7.4 was prepared for a final concentration of 50 μM each. The three attached cell types were treated immediately with the related buffer being added to the control wells. A sterile fluorescence-based solution of the resazurin reagent of 0.5 mg/mL in HBSS was prepared. After 24 h, the cells were exposed to 15% v/v of the sterile resazurin reagent, and the plates were re-incubated for 4.5 h to allow redox reaction. All plates were read under 530/590-nm excitation/emission wavelengths using Bio-Tek Synergy HTX Multi-reader as a microplate fluorescence reader.

For series [4], the target named is T1, hMAO-A (Homo sapiens, UniProt P21397).
T1 construct: purchased Sigma-Aldrich Co. (St. Louis, MO, USA)
T1 sequence (P21397 1-527): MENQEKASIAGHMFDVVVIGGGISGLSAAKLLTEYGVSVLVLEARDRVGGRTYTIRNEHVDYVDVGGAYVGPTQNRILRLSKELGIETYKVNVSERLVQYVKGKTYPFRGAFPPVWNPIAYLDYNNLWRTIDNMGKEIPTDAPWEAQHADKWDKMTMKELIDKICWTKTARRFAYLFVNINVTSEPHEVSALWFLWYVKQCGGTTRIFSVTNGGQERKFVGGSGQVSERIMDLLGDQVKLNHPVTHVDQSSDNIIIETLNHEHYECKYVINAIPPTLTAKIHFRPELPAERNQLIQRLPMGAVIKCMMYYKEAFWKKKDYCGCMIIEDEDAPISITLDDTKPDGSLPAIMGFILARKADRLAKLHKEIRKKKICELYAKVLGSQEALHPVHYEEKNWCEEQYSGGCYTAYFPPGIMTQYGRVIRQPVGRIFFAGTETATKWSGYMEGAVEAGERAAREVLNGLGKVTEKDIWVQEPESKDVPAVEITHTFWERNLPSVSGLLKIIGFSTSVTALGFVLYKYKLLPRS
The series is described as follows: MAO-Glow inhibitory potency (IC50) and relative selectivity. The note with it: mean ± SEM, at least two experiments; LDS 40 μM. It is filed as biochemical. Here is the method:
(§1) The inhibitory effects of the synthesized KKRs of hMAO-A and B were tested by measuring the decrease in arbitrary light units (ALU) signal produced by the optimized isozymes using the MAO-Glow™ Assay at 37 °C. In this assay, DMSO stock for each KKR compound was diluted with a reaction buffer of pH 7.4 to make a 4X working solution for a maximum final concentration of 100 μM and ≤1% DMSO. The experiments were run in the absence and presence of 4X the miscellaneous standards of MAO-BIs (DEP, PARG, and SAF) and MAO-AIs (PIRL and CLORG), with similar concentrations. In white opaque 96-well microplates, 12.5 μL of each compound was plated at RT and was followed by 25 μL of 2X cold hMAO-A or hMAO-B, for a final concentration of 0.44 U/mL. A related buffer substituted each isozyme to make the blank wells and substituted each compound to make the negative control wells. Following this, we added 12.5 μL of 4X LDS to make a final substrate concentration of 40- and 4-μM for hMAO-A and hMAO-B, respectively. All screen plates were incubated at 37 °C for 60 min. The plates of 50 μL/well were then taken out from the incubator, and their reactions were stopped by an equal volume of 50 μL of reporter luciferin detection reagent (RLDR). After 30 min, the luminescence signals for all plates were read on a Synergy HTX Multi-reader from Bio-Tek (Winooski, VT, USA).
(§2) The experiments were performed in the presence and absence of the standard PILR. In white opaque 96-well plates, each KKR compound was serially diluted with a reaction buffer of pH 7.4 at the highest possible maximum final concentration, and the least used DMSO (<2%). In blank wells, the related reaction buffer substituted the isozyme. In negative control wells, the reaction buffer substituted each compound concentration. Then, the procedure was carried out as mentioned above (Section 4.2.2), and the reaction was detected on the Bio-Tek Synergy HTX Multi-Reader. The IC50 of each KKR on both isozymes was determined and subsequently the RSA and RSB was calculated.
(§3) Statistical analyses were performed using the GraphPad Prism program (version 6.07 for Windows) from the GraphPad Prism Software Incorporated (San Diego, CA, USA). All data points and parameters were expressed as the mean ± SEM. All parameters were calculated from non-linear and linear regressions with the best R^2 values, no less than 93%. The inhibitory concentration of 50% of isozyme (IC50) of each compound was obtained by the interpolation of a normalized variable slope logarithmic curve. The RSA values of the selected compounds were calculated from their IC50 average means following the equation RSA = hMAO − B IC50/Hmao − A IC50(1)

Series [5] concerns LNCaP cells. The series is described as follows: cells. It counts as cell-based, human. As for the experimental part: The morphological alterations of the LNCaP cells were imaged, and their percentage proliferation rate was measured after five-days of incubation. The method of subculture and treatment were similar to our antiproliferation assay, with slight modifications. Briefly, the cells were seeded in transparent flat-bottom 96-well microplates with 10,000 cells/175 μL/well of […] experimental media. Following overnight incubation, 20 μM concentration level (~2 × IC50) for each of KKR11, 20, 7, 2A, 21, and the standard PIRL were added to the cells for a total volume of 200 μL/well and re-incubated for five-days. On the day of imaging, 20X phase-contrast images of lid-covered treated and control cells were captured using an inverted microscope. Resazurin was then added for viability detection, and the imaged cells in the wells were read after 4.5 h on the Bio-Tek Synergy HTX Multi-reader.

The subject of series [6] is LNCaP cells. Nature of the series: Antiproliferation dose-response assay for 72 h. It is filed as cell-based. To be noted: Homo sapiens, mean ± SEM of two experiments, read-out: antiproliferative IC50. As for the experimental part: For the top effective KKRs, along with TAX, their potency to reduce the affected PCa cell line growth in a dose-dependent manner was determined using the resazurin fluorescence assay. We followed the same protocols and materials used for the antiproliferation screen assays (Section 4.3.2), with the following modifications. The maximum final KKR concentration used was 40 μM. The concentration of 8X of each KKR working solution in 1% HEPES 7.4 was serially diluted in a 3:1 ratio, compound to buffer, respectively. Each data set was collected from ten data points of 3.7–40 μM range. The control had the KKR substituted with buffer. The related IC50 averages were analyzed for the compounds that affected the cell lines the most.

Series [7] deals with T2, hMAO-B (Homo sapiens, UniProt P27338).
T2 construct: purchased Sigma-Aldrich Co. (St. Louis, MO, USA)
T2 sequence (P27338 1-520): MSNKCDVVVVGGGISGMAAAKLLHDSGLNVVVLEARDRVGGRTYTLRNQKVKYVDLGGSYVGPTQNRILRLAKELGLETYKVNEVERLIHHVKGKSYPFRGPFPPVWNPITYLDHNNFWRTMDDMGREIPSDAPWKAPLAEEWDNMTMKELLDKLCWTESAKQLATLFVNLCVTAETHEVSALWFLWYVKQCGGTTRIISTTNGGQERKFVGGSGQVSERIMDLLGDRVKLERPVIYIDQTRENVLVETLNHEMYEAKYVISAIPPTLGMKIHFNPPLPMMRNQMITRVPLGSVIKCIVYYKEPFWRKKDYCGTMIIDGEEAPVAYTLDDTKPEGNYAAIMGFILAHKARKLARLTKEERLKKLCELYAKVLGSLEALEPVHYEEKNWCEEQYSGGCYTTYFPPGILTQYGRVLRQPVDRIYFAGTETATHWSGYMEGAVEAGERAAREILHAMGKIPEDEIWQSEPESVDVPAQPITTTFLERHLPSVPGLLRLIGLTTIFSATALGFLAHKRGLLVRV
Nature of the series: MAO-Glow inhibitory potency (IC50). It counts as biochemical. The note with it: mean ± SEM, at least two experiments; LDS 4 μM. Here is the method:
as §1, §2, §3

For series [8], the system named is DU145 cells. Nature of the series: Scratch migration assay. It counts as cell-based, human. To be noted: preliminary data. As for the experimental part:
For in-vitro migration experiments, the PCa metastatic DU145 cell line was used. Cell proliferation and cytotoxicity were monitored for assay validation. The cells (passage # ≤ 10) were grown in fresh media of EMEM 10% FBS, 1% P/S. The cells were seeded in flat-bottom transparent 96-well microplates (100,000 cells/100 μL/well) in EMEM 5% FBS, 1% P/S experimental media. The next day, the confluent cells monolayer was artificially injured by scratching a line across each well, using a 200 μL tip. Immediately, the old media with the detached cells were replaced with 175 μL fresh warm experimental media. Intact cells were then treated with 25 μL of HBSS buffer 7.4 containing tested KKR. In addition to the negative control, KKR11 was tested at gradual concentrations to make finals of 40, 30, 23, 17, and 13 μM. The cells were then incubated for an additional 72 h for gap closure of the control wells.
At the gap closure time point, all cells were subjected to the crystal violet assay that only stains viable cells. Briefly, all media were carefully aspired from cells that were then washed with Ca- and Mg-free PBS. The cells were then fixed with 100 μL 0.25% v/v glutaraldehyde, at 37 °C for 20–30 min incubation time, and dried overnight. The next day, all viable attached cells were stained with a 100 μL crystal violet solution (0.1% in DI-water) for up to 30 min. The solution was then discarded, and the stained cells were kept dry for imaging. Images of the scratched areas were photographed using 10X phase contrast objective lenses of Motic-MXH-100-AE31E-Elite Inverted Microscope.

As for `O=C(/C=C/c1ccc2c(c1)OCO2)c1cc(Cl)cc(Cl)c1O` [KKR18, (E)-3-(benzo[d][1,3]dioxol-5-yl)-1-(3,5-dichloro-2-hydroxyphenyl)prop-2-en-1-one], in series [1], the “antiproliferative effect in screen” value is reported as “top five KKRs that kept standing out with antiproliferative effects”.

On to `CC(C)C(=O)Nc1ccc([N+](=O)[O-])c(C(F)(F)F)c1` [FLUT, flutamide], for which the “antiproliferative effect of clinical standards” value in series [2] (10 μM) is on record as “none of the standards showed a significant antiproliferative effect”.

Consider `COc1cc(OC)c2c(=O)c(O)c(/C=C/c3ccccc3)oc2c1` [KKR16, (E)-3-hydroxy-5,7-dimethoxy-2-styryl-4H-chromen-4-one], for which the “cytotoxicity / cell viability” value in series [3] was “affected the LNCaP cells”.

Consider `Cc1ccc2c(c1)c1c3n2CCNC3CCC1` (stereo not drawn) [PIRL, pirlindole, reference compound], for which the IC50 was 12 ± 2 nM in series [4], more than 40000 nM in series [6] and more than 800 µM in series [7]. Also, the “antiproliferative effect of clinical standards” value in series [2] (10 μM) is “none of the standards showed a significant antiproliferative effect”. Besides, the “effect on LNCaP proliferation and cell morphology” value in series [5] (20 μM, five days, phase contrast) is listed as “neither significant effects on LNCaP proliferation nor apparent changes in cell morphology”. Also, in series [5] (Homo sapiens, LNCaP, 120 h, read-out: percentage of treated group compared to the viable control), the viability at 20 µM turned out to be 90%.

Turning to `CC(=O)O[C@H]1C(=O)[C@@]2(C)[C@H]([C@H](OC(=O)c3ccccc3)[C@]3(O)C[C@H](OC(=O)[C@H](O)[C@@H](NC(=O)c4ccccc4)c4ccccc4)C(C)=C1C3(C)C)[C@]1(OC(C)=O)CO[C@@H]1C[C@@H]2O` [TAX, paclitaxel, reference compound], the “antiproliferative effect of clinical standards” value in series [2] (0.5 μM) is reported as “highly effective”. The IC50 in series [6] turned out to be 210 nM. Moreover, the “effect on cell migration” value in series [8] is “delayed cell migration”.

With `C#CCN(C)[C@H](C)Cc1ccccc1.Cl` [DEP, (R)-(−)-deprenyl HCl], the “antiproliferative effect of clinical standards” value in series [2] (10 μM) is reported as “none of the standards showed a significant antiproliferative effect”.

Consider `O=C(/C=C/c1ccccc1)c1cc(Cl)c(Cl)cc1O` [KKR23, (E)-1-(4,5-dichloro-2-hydroxyphenyl)-3-phenylprop-2-en-1-one], for which, in series [1], the “antiproliferative effect in screen” value is reported as “top five KKRs that kept standing out with antiproliferative effects”.

For the compound `COc1cc(-c2cc(=O)c3ccccc3o2)cc(OC)c1OC` [KKR22, 2-(3,4,5-trimethoxyphenyl)-4H-chromen-4-one], in series [3], the “cytotoxicity / cell viability” value is recorded as “affected the LNCaP cells”.
